15 compounds from PubChem BioAssay (NCI) can be followed below.

Holding throughout (assay): NCI anticancer screen, dose series, 48 h
The subject of assay [1] is BT-549 breast.
The subject of assay [2] is DU-145 prostate.
Assay [3] relates to MCF7 breast.
Assay [4] has as its system MDA-MB-435.
For assay [5], the system named is PC-3 prostate.

Several values for one entry are separate records, joined by “and”; a condition that tells them apart may be missing. Identical values can stand only once.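 Growth conditions: 96-well plates. Treatment: test compound, 48 hours, 5 concentrations. Analysis: linear interpolation between bracketing concentrations; unreached endpoints set to highest concentration. GI50: concentration for 50% inhibition of growth. TGI: total growth inhibition.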

Take `CCOC(=O)C#Cc1c(CC(=O)OCC)nnn1[C@H]1O[C@@H](CO)[C@@H]2OC(C)(C)O[C@@H]21`: the GI50 is 9.1 µM in assay [1]; 10.2 µM in assay [2]; 3.15 µM in assay [3]; 5.4 µM in assay [4]; 16.1 µM in assay [5]. Also, the TGI in assay [1] was determined as 21.2 µM; in assay [2], 21.8 µM; in assay [3], 14.9 µM; in assay [4] it was 18.3 µM; in assay [5] it was 31 µM.
`Cc1nn(-c2nc3ccccc3[nH]2)c2c1C(c1ccc3c(c1)OCO3)CC(=O)N2` (stereo not given): the GI50 in assay [1] is 3.26 µM; in assay [2], 3.23 µM; in assay [3], 2.98 µM; in assay [4] it was 2.46 µM; in assay [5] it was 3.16 µM. In addition, the TGI in assay [1] is 14.2 µM; in assay [2], 9.12 µM; in assay [3], greater than 30.1 µM; in assay [4], 6.3 µM; in assay [5], 22 µM.
On to `CC(=O)c1c[nH]cc1CO`, for which the TGI in assay [3] and in assay [5] was greater than 10 µM each time.
With `Clc1nc(Cl)c(Cc2ccccc2)c(Cl)n1`, the TGI was found to be 8.52 µM in assay [1]; 28.7 µM in assay [2]; 21.4 µM in assay [3]; 19 µM in assay [4]; 44.5 µM in assay [5].
The matching figures for `CC(C)CCc1c(Cl)nc(Cl)nc1Cl`: 12.3 µM, 31.1 µM, 40.7 µM, 32.2 µM and greater than 100 µM.
In the case of `COC(=O)[C@@H](C)C[C@H](Cc1ccccc1)NC(=O)c1csc([C@@H](C[C@H](C(C)C)N(C)C(=O)C2(NC(=O)[C@H]3CCCCN3C)CC2)OC(C)=O)n1`, the GI50 was 0.00549 µM and < 0.00333 µM in assay [1]; 0.00348 µM and 0.00333 µM in assay [2]; 0.000612 µM and 0.00333 µM in assay [3]; 0.000405 µM and < 0.00333 µM in assay [4]; 0.00523 µM and 0.00333 µM in assay [5]. Also, the TGI was less than 0.00333 µM in assay [1]; greater than 33.3 µM in assay [3]; 0.00273 µM and < 0.00333 µM in assay [4]; greater than 33.3 µM in assay [5].
In the case of `N#Cc1nc2cc(F)c(F)cc2nc1-c1ccc(Cl)cc1`, the GI50 in assay [1] was 19.8 µM; in assay [2], 22.4 µM; in assay [3], 13.1 µM; in assay [4], 17.5 µM; in assay [5], 4.27 µM. Moreover, the TGI is 40.3 µM in assay [1]; greater than 82.6 µM in assay [2]; greater than 100 µM in assay [3]; 39.1 µM in assay [4]; 20.2 µM in assay [5].
Take `CCCCCCCCCCCC[n+]1ccc(C(N)=O)cc1`: the GI50 was 1.93 µM in assay [1]; 4.6 µM in assay [2]; 3.7 µM in assay [3]; 3.17 µM in assay [4]; 0.71 µM in assay [5]. In addition, the TGI is 4.7 µM in assay [1]; 17.2 µM in assay [2]; 15.4 µM in assay [3]; 14.9 µM in assay [4]; 3.55 µM in assay [5].
For `OCCNCCNc1c2ccccc2nc2oc3ccccc3c12`, the GI50 in assay [1] is 13.3 µM; in assay [2], 10.1 µM; in assay [3] it was 6.01 µM; in assay [4], 11.5 µM; in assay [5], 9.73 µM. Further, the TGI in assay [1] was determined as 28.2 µM; in assay [2], 23.5 µM; in assay [3], 29.2 µM; in assay [4], 29.3 µM; in assay [5] it was 34.7 µM.
Turning to `CN(C)c1ccc(O)c2c1C[C@H]1C[C@H]3[C@H](N(C)C)C(=O)C(C(N)=O)=C(O)[C@@]3(O)C(=O)C1=C2O`, the GI50 in assay [1] is 4.14 µM; in assay [2] it was 5.07 µM; in assay [3], 10.1 µM; in assay [4] it was 5.18 µM; in assay [5], 6.61 µM. For the same compound, the TGI was 20.1 µM in assay [1]; 73.6 µM in assay [2]; greater than 100 µM in assay [3]; 33.2 µM in assay [4]; 93.2 µM in assay [5].
Take `O=C(CN1C(=O)c2ccccc2C1=O)C(O)CN1C(=O)c2ccccc2C1=O` (stereo not given): the TGI in assay [1], in assay [2], in assay [3], in assay [4] and in assay [5] was greater than 100 µM each time.
As to `N#CC1=C(N)Oc2c(sc3c(F)cccc23)C1c1ccc(F)cc1` (stereo not given), the GI50 in assay [1] was 0.604 µM; in assay [2] it was 1.79 µM; in assay [3], 0.391 µM; in assay [4] it was 0.212 µM; in assay [5] it was 0.892 µM. In addition, the TGI in assay [1] is 14.2 µM; in assay [2] it was 12.9 µM; in assay [3], 12.4 µM; in assay [4] it was 0.631 µM; in assay [5], 16.2 µM.
As to `CCCCCN(CCCCC)CC(O)c1cc2c(c3ccccc13)CCCC2` (stereo not given), the GI50 in assay [1] is 12.4 µM and 13.8 µM; in assay [2], 10.1 µM and 21.4 µM; in assay [3], 3.65 µM and 4.63 µM; in assay [4], 7.68 µM and 13.2 µM; in assay [5], 5.14 µM and 5.62 µM. Besides, the TGI was 25.5 µM and 29.8 µM in assay [1]; 21.7 µM and 48.1 µM in assay [2]; 14.1 µM and 16.7 µM in assay [3]; 21.9 µM and 36.5 µM in assay [4]; 21.6 µM and 20.9 µM in assay [5].
Take `S=C(Nc1ccccc1)N(Cc1ccccc1)c1ccccc1`: the TGI in assay [1] is 4.97 µM; in assay [2], 24.7 µM; in assay [3], greater than 100 µM; in assay [4] it was 49.5 µM.
Take `OC(CNc1ccnc2cc(Cl)ccc12)CNC1CCCCC1` (stereo not given): the GI50 in assay [1] is 3.69 µM; in assay [2], 13.9 µM; in assay [3], 7.36 µM; in assay [4], 1.7 µM; in assay [5] it was 8.08 µM. Moreover, the TGI in assay [1] stood at 16.7 µM; in assay [2], 28.2 µM; in assay [3], 21.9 µM; in assay [4] it was 3.28 µM; in assay [5] it was 28.7 µM.
